From patent US20260335468A1, “MOLECULAR RADIOAFTERGLOW PROBES FOR CANCER RADIODYNAMIC THERANOSTICS” (NANYANG TECHNOLOGICAL UNIVERSITY, priority 2023, published 2026)

Assays:
[1] = ^1O2 generation at tissue depth (X-ray or light through chicken breast tissue); format: physicochemical
Method: To study ^1O2 generation, a mixture of DPAS or IDPAS (100 M) and TEMP (10 mM) in PBS (0.01 M, pH 7.4, 50% DMSO) was irradiated by X-rays at 2 Gy (100 mGy s^−1 for 20 s) or 5 mGy (250 μGy s^−1 for 20 s). The ESR signals of the mixture were recorded with a Bruker A300 instrument. The ESR signal of the free radical 2,2,6,6-tetramethyl-1-piperidinyloxyl (g=2.0060) was generated by the reaction of ^1O2 with TEMP. The ^1O2 quencher NaN3 (1 mM) was added to validate the afterglow mechanism of IDPASu. Additionally, other commercially available radio sensitizers (such as acridine orange, hematoporphyrin and verteporfin) were measured and compared. The procedure of block depths was similar to that of the tissue penetration depth study and the ^1O2 generation for different depth tissues was measured. The ESR signal changes of MRAP in the absence or presence of CatB were measured in a similar way. The ESR signals of 2,2,6,6-tetramethyl-1-piperidinyloxyl from the reaction of ^1O2 with TEMP were plotted as a function of the concentration of ^1O2, which was generated by the addition of NaOCl to H2O2. This generated the standard curve between the ESR intensity and ^1O2 concentration.
The deep-tissue radiodynamic process of IDPASu was tested by measuring ^1O2 generation at different tissue depths and compared with photosensitization (FIG. 11c).

[2] = In vivo limit of detection of subcutaneously injected IDPASu (radio afterglow); design: species or system mouse (BALB/c nude); settings: subcutaneous injection, X-ray 5 mGy, LOD=3σ/k
Method: To test the LOD of IDPASu for in vivo RAI, 20 μl of the mixture solution of IDPASu at different concentrations (100.0, 50.0, 20.0, 10.0, 5.0, 1.0, 0.5 and 0 μM) and solubilizing agent (2-carboxyethyl)-o-cyclodextrin sodium salt (β-CD) at 100 μM was subcutaneously injected into the left flank of BALB/c nude mice (six weeks old). After 30 min, the left flank of mice were irradiated with X-rays at 5 mGy (250 μGy s^−1 for 20 s) as the other areas were protected by a 3.4-mm-thick lead shield with a notch under the X-ray irradiation. Radio afterglow signals were recorded. The detection limit was calculated using this equation: LOD=3σ/k, where a represents the s.d. of blank and k implies the slope of the radio afterglow intensities.

[3] = ·OH and other ROS detection (HPF) upon X-ray irradiation; format: physicochemical
Method: To study other ROS generation, fluorescence sensors DHR123 (for O2·^− detection) and HPF (for ·OH detection) were used. For O2·^− detection, DHR123 (10 PM) was added to a solution of IDPASu (10 M) in PBS (0.01 M pH 7.4, 50% DMSO), followed by X-ray irradiation at different doses of 5 mGy (250 μGy s^−1 for 20 s) and 2 Gy (100 mGy s^1 for 20 s). The fluorescence changes in DHR123 were recorded at λex of 505 nm and λem of 534 nm. For ·OH detection, HPF ([…]) was added in a solution of IDPASu (10 M) in PBS (0.01 M, pH 7.4, 50% DMF), followed by X-ray irradiation at different doses, namely, 5 mGy (250 μGy s^−1 for 20 s) and 2 Gy (100 mGy s^−1 for 20 s). The fluorescence changes in HPF were collected at ex of 450 nm and λem of 515 nm. The ROS production was calculated by the corresponding standard curve.

SMILES: COC(=C1C2CC3CC(C2)CC1C3)c1cc(O)c(I)cc1/C=C/C1=CC(=C(C#N)C#N)c2ccccc2S1 [IDPASu]
- decrease of ^1O2 concentration at tissue depth of 1 cm, X-ray ([1]; X-ray through 1 cm tissue): ~ 30%
- radiodynamic ^1O2 generation at tissue depth of 15 cm ([1]; X-ray through 15 cm tissue): still inducible
- ^1O2 generation at tissue depth of 1 cm, light irradiation ([1]; light through 1 cm tissue): close to the background
- limit of detection (LOD), in vivo imaging [2]: 49 nM
- HPF+IDPASu (+X-ray) versus HPF+IDPASu (−X-ray), ·OH ([3]; 250 μGy s^−1 or 100 mGy s^−1 for 20 s): not significant
- other ROS generation ([3]; X-ray irradiation): undetectable
